Patent publication US20160317418A1, “METHOD OF IMPROVING THE APPEARANCE OF SKIN AND COMPOSITIONS THEREFOR” (The Procter & Gamble Company, priority 2015, published 2016)
“Also recorded” adds a separate entry of the source.

Tests used:
[1] = system: human neonatal keratinocytes; test: Melanosome Uptake Assay (CFDA-labeled melanosomes, flow cytometry); assay type: cell-based; details: for % Uptake: 0.0025 w/v % in keratinocyte medium, fraction of keratinocytes with detectable CFDA, vehicle control 36; for Rate of Melanosome Uptake Versus Control: 0.0025 w/v %, vehicle control = 100%
Experimental: Melanosome uptake was determined as follows. Carboxyfluorescein diacetate (“CFDA”) (available from Sigma, St. Louis, Mo.) labeled melanosomes were prepared by incubating CFDA dye in SKMEL-188 culture cells (available from Sloan Kettering Institute) for 2 days at 37° C. in a THERMO SCIENTIFIC FORMA brand CO2 incubator (available from Fisher Scientific, Waltham, Mass.). On day 3 of the test, melanosomes were isolated from SKMEL-188 cells by step density centrifugation with sucrose solutions layered with different densities, which is well known in the art. Melanosomes were taken from the 1.6 M-2.0 M sucrose layers. The isolated melanosomes were placed in each well of a 6-well plate along with human neonatal keratinocytes (available from Thermo) (approximately 50,000 keratinocytes/well). 2 ml of the appropriate medium (i.e., the test composition, the positive control or the vehicle control) was added to each of the wells to produce […] (i.e., 3 replicates of each of three composition tested). The test composition was made by adding nicotinamide riboside chloride powder (available from Chromadex, Irvine, Calif.) to EPILIFE brand keratinocyte medium to produce a solution of 0.0025 w/v % nicotinamide riboside. The positive control was made by adding niacinamide to EPILIFE brand keratinocyte medium to produce a solution of 0.0025 w/v % niacinamide. Unmodified keratinocyte medium was used as a vehicle control.
The resulting test plates were incubated for two days in EPILIFE brand keratinocyte medium. On day 6 of the test, the keratinocytes were detached from the plates using trypsin and fluorescent-label counted by flow cytometry using an LSRFortessa brand flow cytometer (available from Becton Dickinson, NJ). The percentage of cells that had fluorescence (from CFDA label) was used as a metric to determine melanosome uptake. Keratinocytes containing detectable levels of CFDA were counted as a fraction of all keratinocytes passing through the flow cytometer (indicated as % uptake in Table 2). A higher percentage corresponds to a higher level of melanosome uptake into the keratinocytes.

[2] = system: HMGB1 protein released from keratinocytes; test: In Vitro UV Stress Test: HMGB1 released from UVB-exposed keratinocytes (ELISA); assay type: cell-based, human; details: for HMGB1 Released: 0.001 w/v % after 15 mJ/cm^2 UVB, 24 hours, UV untreated 19.4, no UV 10.5; for effect on amount of HMGB1 protein released by keratinocytes exposed to UVB (in words): compared to the untreated UVB exposed cells
Experimental: This example compares the ability of nicotinamide riboside and niacinamide to reduce the amount of HMGB1 protein released from keratinocytes subjected to stress from ultraviolet (“UV”) radiation. Human neonatal keratinocytes (available from Thermo) were placed in each well of four 12-well plates. Each well also contained 2 ml of EPILIFE brand keratinocyte medium. The plates were incubated at 37° C. in a CO2 incubator until cell confluency reached 70%. At this point, the cells, except for the negative control, were exposed to 15 mJ/cm^2 UVB (i.e., UV radiation with a wavelength of from 315-280 nm) in a BIO-SUN brand UV irradiating system (available from Vilber Lourmat, France). After UVB exposure, the keratinocyte medium in each well was replaced with an appropriate medium (i.e., niacinamide medium, nicotinamide riboside medium or a control medium) to produce the test plates. The test plates were incubated for 24 hours at 37° C. in a CO2 incubator, after which the medium in each cell was removed and the HMGB1 level measured using a conventional HMGB1 ELISA kit (REF # ST51011, available from IBL International, Canada) according to the manufacturer's instructions. The test media were made by adding either niacinamide or nicotinamide riboside to EPILIFE brand keratinocyte medium to produce a 0.001 w/v % solution. The control medium was unmodified keratinocyte medium.

NC(=O)c1cccnc1 [niacinamide, reference compound]
% Uptake [1]: 26% | Rate of Melanosome Uptake Versus Control [1]: 72% | effect on uptake of melanosomes from melanocytes into keratinocytes (in words) ([1]; compared to the vehicle control): inhibit the rate of melanosome uptake | HMGB1 Released [2]: 17.8 pg/mL | effect on amount of HMGB1 protein released by keratinocytes exposed to UVB (in words) [2]: no significant effect

Nicotinamide riboside [NR]
% Uptake [1]: 67% | Rate of Melanosome Uptake Versus Control [1]: 186% | HMGB1 Released [2]: 11.5 pg/mL | effect on amount of HMGB1 protein released by keratinocytes exposed to UVB (in words) [2]: reduces the amount of HMGB1 protein released from keratinocytes; also recorded: released less HMGB1 protein
